Results taken from patent publication US20230141863A1, “Small Molecule Inhibitors Targeting the Sodium Channel Tamoxifen Receptor and Uses Thereof” (Northwestern University, priority 2021, published 2023).
pIC50: −log10 of the molar value.

Tested on: T1, endogenous voltage-gated sodium channels expressed in murine DRG neurons
T1 construct: other: waiting for 5 minutes after removal; ND-Tam potency against DRG INa (IC50); other: DRG neurons, −60 mV holding potential; other: 3 μM ND-Tam treatment; other: DR
Experiment: Whole cell voltage clamp of endogenous sodium currents (INa) in cultured DRG sensory neurons
Type: cell-based, mouse
Description: FIG. 1. Tamoxifen metabolites inhibit endogenous voltage-gated sodium channels expressed in murine DRG neurons. A) DIC and fluorescence images of voltage clamped DRG neuron isolated and cultured from an Nav1.8-tomato mouse. Continuity with the patched neuron is indicted by the GFP (Alexa Fluor 488 dye 1 nM) loaded into the glass patch electrode. B) Top, exemplar sodium currents (INa) recorded in control saline and two concentrations of N-desmethyl tamoxifen (ND-Tam) from a voltage-clamped DRG neuron. INa was activated by 0.2 Hz train of 50 ms depolarizations to −10 mV from −100 mV holding potential. Bottom, time course of peak INa inhibition during control conditions and after 5 minutes of extracellular ND-Tam treatment. C) Resulting drug concentration-INa inhibition relationship for ND-Tam fit to the Hill equation. Open symbols represent responses from individual cells and filled symbols represent average response per concentration. Error is equal to S.E.M. (n=11) D) A comparison of the percent INa recovery after 3-10 μM ND-Tam or 1 mM carbamazepine (CBZ) inhibition. INa recovery was assessed after 5 minutes in control saline post drug exposure. Fewer INa recovered from ND-Tam exposure compared to CBZ exposure, 14.3±5.4% and 47.2±9.6%, respectively, and was statistically significant (P=0.03). Error is equal to S.E.M. and the number of cells tested per treatment group is indicated within the parentheses.
Previously, a unique receptor site for tamoxifen analogues within the prokaryotic sodium channel isolated form Magnetococcus marinus (NavMs)^36 (Sula et al) was crystallographically identified. Because drug occupancy of this receptor caused long lasting inhibition of the NavMs INa, the inventors wondered if these properties would translate into effects against sensory neuron Na s which transmit pain signals. Accordingly, =the potency of ND-Tam and 4OH-Tam was tested against endogenously expressed Na s in cultured DRG sensory neurons isolated from Nav1.8-tdTomato mice by conducting whole cell voltage clamp recordings (FIG. 1A, B). Sodium currents were activated by a 0.2 Hz train of −10 mV depolarizations from a holding potential of −100 mV. The externally applied drug effect was determined after three to five minutes of application of each drug concentration (FIG. 1B). […] As discussed in the introduction, total DRG INa is conducted by the Nav1.1, Nav1.6, Nav1.7, Nav1.8 and Nav1.9 subtypes. To determine if there is any specificity in the potency of tamoxifen analogues against Nav subtypes, human orthologues were heterologously expressed in cell lines (HEK and CHO co-expressing hb1 subunits), and conducted voltage-clamp experiments, as previously performed in the DRG neurons.
Dorsal root ganglia were isolated using a modified version of the previously described protocol (PMID: 26864470). All animal procedures were approved by the Institutional Animal Care and Use Committee at the Feinberg Medical School, Northwestern University. The spinal columns of 4-6-week-old […] or Nav1.8-Tomato mice (Nav1.8-Td) were removed and DRG neurons from all spinal levels were isolated for primary culture (PMID: 33827672, PMID: 31351964). The collected DRGs, containing both neuronal and non-neuronal cells, were acutely dissociated in DMEM with collagenase IV (2 mg/mL) for 30 minutes, followed by papain (25 U/mL) for 30 minutes. The cells were then triturated, filtered through a 40 μm cell strainer to remove non-dissociated cells, and washed with DMEM. The DRGs were resuspended in 70 μL of pre-warmed growth medium (DMEM F12+Glutamax supplemented with 0.5% FBS, 0.5% penicillin/streptomycin, 1% N-2 supplement, and β-NGF ([…]) added on the day of use) and plated on poly-l-lysine (10 mg/mL) and laminin (25 μg/mL) prepared coverslips. The DRGs were incubated at 37° C. for 2-4 hours before more growth medium was added to the wells. […]

## CC/C(=C(\c1ccccc1)c1ccc(OCCNC)cc1)c1ccccc1 [ND-Tam, 2-[4-[(Z)-1,2-diphenylbut-1-enyl]phenoxy]-N-methylethanamine]
3 μM ND-Tam treatment
  block of the total INa: ≈ 45%
  change in the half-maximal activation of conductance (GV1/2): No change
DRG neurons, −100 mV holding potential, 0.2 Hz train of −10 mV depolarizations, read-out: half maximal potency of INa inhibition (IC50)
  pIC50: 5.77
ND-Tam (3 μM), control −47.6±0.4 mV
  voltage-dependence of inactivation (V1/2) after drug treatment: −51.9±0.4 mV
ND-Tam conditions (3 μM), control −38.3±0.3 mV
  half-maximal conductance-voltage relationship (V1/2): −37.7±0.4 mV
After 3 μM ND-Tam treatment, P=0.01
  shift in voltage dependence of inactivation: −8 mV
Tamoxifen analogs and fragments, FIG. 7B
  inhibition of sodium currents recorded from DRG neurons (in words): inhibited sodium currents
Waiting for 5 minutes after removal
  INa that did not recover after removing drug from the bath: 86±5%
−40, −60 and −100 mV holding potentials
  increase in potency when neuron membranes were held at more depolarizing potentials: 15-44 ×
